Experiments:
[1] = biological target: T1, hMAO-B (Homo sapiens, UniProt P27338); test: in vitro fluorometric hMAO-B inhibition assay (Amplex Red); assay type: biochemical; conditions: for inhibition at 1000 µM: 10^−3 M; for inhibition at 1000 µM / inhibition at 100 µM: read-out: MAO B Inhibition %; for inhibition against hMAO-B (first screening step): 10^−3 and 10^−4 M; for inhibition at 100 µM: 10^−4 M; for IC50: concentrations of 10^−5–10^−9 M, mean ± SD, read-out: MAO B IC50
T1 sequence (P27338 1-520): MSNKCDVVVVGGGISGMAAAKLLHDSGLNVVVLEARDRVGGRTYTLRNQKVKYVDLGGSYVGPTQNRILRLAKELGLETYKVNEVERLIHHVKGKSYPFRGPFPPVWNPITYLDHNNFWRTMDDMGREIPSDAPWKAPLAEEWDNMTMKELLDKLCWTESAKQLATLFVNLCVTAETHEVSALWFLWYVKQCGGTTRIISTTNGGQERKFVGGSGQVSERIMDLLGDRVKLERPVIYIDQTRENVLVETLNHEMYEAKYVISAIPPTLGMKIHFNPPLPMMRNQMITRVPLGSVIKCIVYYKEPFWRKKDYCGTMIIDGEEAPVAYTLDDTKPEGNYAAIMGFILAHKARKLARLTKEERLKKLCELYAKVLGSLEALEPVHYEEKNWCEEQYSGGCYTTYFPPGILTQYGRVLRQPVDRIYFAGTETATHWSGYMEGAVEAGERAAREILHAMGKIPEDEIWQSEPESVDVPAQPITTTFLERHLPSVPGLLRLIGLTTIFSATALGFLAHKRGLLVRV
Experimental: The method was performed in two steps, as previously described.
An enzyme inhibition assay was performed according to our recent study. […] After the incubation period, the reaction was started by adding a working solution (100 μL/well) ([…] Amplex Red reagent, 1 U/mL horseradish peroxidase and 1 mM p-tyramine) and all pipetting processes were performed using a Biotek Precision XS robotic system (BioTek Instruments, Winooski, VT, USA).
(§1) Control experiments were carried out simultaneously by replacing the inhibitor solution with 2% DMSO (20 μL). In order to check the probable inhibitory effect of inhibitors on horseradish peroxidase, a parallel reading was achieved by replacing enzyme solutions with 3% H2O2 solution (20 mM 100 μL/well). In addition, the probable capacity of the inhibitors to modify the fluorescence generated in the reaction mixture due to non-enzymatic inhibition was determined by mixing inhibitor and working solutions.
(§2) The specific fluorescence emission (used to obtain the final results) was calculated after subtraction of the background activity, which was determined from vials containing all components except the hMAO isoforms, which were replaced by phosphate buffer (100 μL/well). Blank, control and all concentrations of inhibitors were analyzed in quadruplicate and inhibition percent was calculated by using following equation: % Inhibition=(FCt2−FCt1)−(FIt2−FIt1)/FCt2−FCt1×100 where FCt2 is the fluorescence of a control well measured at t2 time; FCt1 is the fluorescence of a control well measured at t1 time; FIt2 is the fluorescence of an inhibitor well measured at t2 time; and FIt1 is the fluorescence of an inhibitor well measured at t1 time.
(§3) The IC50 values were calculated from a dose-response curve obtained by plotting the percentage inhibition versus the log concentration with the use of GraphPad PRISM software (version 5.0, GraphPad Software Inc., La Jolla, CA, USA).

[2] = biological target: T2, hMAO-A (Homo sapiens, UniProt P21397); test: in vitro fluorometric hMAO-A inhibition assay (Amplex Red); assay type: biochemical; conditions: read-out: MAO A Inhibition %; for inhibition at 1000 µM: 10^−3 M; for inhibition at 100 µM: 10^−4 M
T2 sequence (P21397 1-527): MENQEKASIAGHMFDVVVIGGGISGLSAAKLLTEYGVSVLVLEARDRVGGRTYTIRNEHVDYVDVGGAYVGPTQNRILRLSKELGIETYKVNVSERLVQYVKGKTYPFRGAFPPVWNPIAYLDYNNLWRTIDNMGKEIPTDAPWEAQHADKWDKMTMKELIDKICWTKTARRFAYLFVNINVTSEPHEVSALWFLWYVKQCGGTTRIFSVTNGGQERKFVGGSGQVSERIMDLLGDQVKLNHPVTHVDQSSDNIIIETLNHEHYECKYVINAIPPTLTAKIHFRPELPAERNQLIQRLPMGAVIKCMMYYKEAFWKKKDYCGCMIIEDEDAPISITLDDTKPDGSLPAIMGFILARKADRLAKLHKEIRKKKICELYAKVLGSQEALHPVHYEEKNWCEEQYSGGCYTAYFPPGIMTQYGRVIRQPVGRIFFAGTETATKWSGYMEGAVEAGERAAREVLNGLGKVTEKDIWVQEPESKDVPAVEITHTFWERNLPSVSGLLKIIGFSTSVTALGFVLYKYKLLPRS
Experimental: The in vitro fluorometric enzymatic assay, allowing to sensitively detect monoamine oxidase activity, was applied to investigate hMAO-A and hMAO-B inhibitory potential of compounds 3a–3j. The method was performed in two steps, as previously described. […]
An enzyme inhibition assay was performed according to our recent study. The inhibitor (20 μL/well) and hMAO-A (100 μL/well) or hMAO-B solution (100 μL/well) was added to the fine black-bottom 96-well microtiter plate and the mixture was incubated at 37 °C for 30 min. After the incubation period, the reaction was started by adding a working solution (100 μL/well) ([…] Amplex Red reagent, 1 U/mL horseradish peroxidase and 1 mM p-tyramine) and all pipetting processes were performed using a Biotek Precision XS robotic system (BioTek Instruments, Winooski, VT, USA).
as §1, with “The production of H2O2 and, subsequently, of resorufin was quantified at 37 °C in a BioTek-Synergy H1 microplate reader based on the fluorescence generated (excitation, 535 nm, emission, 587 nm) over a 15 min period, in which the fluorescence increased linearly. Control” for “Control”
as §2, §3

SMILES	melting point	inhibition at 1000 µM [1]	inhibition against hMAO-B (first screening step) [1]	inhibition at 100 µM [1]	IC50 [1]	inhibition at 1000 µM [2]	inhibition at 100 µM [2]
COc1ccc2sc(SCC(=O)NN=Cc3cccs3)nc2c1 [Compound 3a, 2-((5-Methoxybenzothiazol-2-yl)thio)-N′-(thiophen-2-ylmethylene)acetohydrazide]	163.7 to 165.3 °C	60.4%	more than 50%	52.1%	15400 ± 398 nM	25%	19%
COc1ccc2sc(SCC(=O)NN=Cc3sccc3C)nc2c1 [Compound 3b, 2-((5-Methoxybenzo[d]thiazol-2-yl)thio)-N′-((3-methylthiophen-2-yl)methylene)acetohydrazide]	162.9 to 164.4 °C	30.5%		26.9%		30.1%	20.4%
COc1ccc2sc(SCC(=O)NN=Cc3ccc(C)s3)nc2c1 [Compound 3c, 2-((5-Methoxybenzothiazol-2-yl)thio)-N′-((5-methylthiophen-2-yl)methylene)acetohydrazide]	149.6 to 152.3 °C	25.8%		18.2%		14.1%	10.8%
COc1ccc2sc(SCC(=O)NN=Cc3ccc(Br)s3)nc2c1 [Compound 3d, N′-((5-Bromothiophen-2-yl)methylene)-2-((5-methoxybenzothiazol-2-yl)thio)acetohydrazide]	188.3 to 190.4 °C	24%		17.8%		18.9%	12.7%
COc1ccc2sc(SCC(=O)NN=Cc3ccco3)nc2c1 [Compound 3f, N′-(Furan-2-ylmethylene)-2-((5-methoxybenzothiazol-2-yl)thio)acetohydrazide]	146.1 to 147.9 °C	75.7%	more than 50%	68.3%	963 ± 33 nM	30.8%	18.3%
COc1ccc2sc(SCC(=O)NN=Cc3ccc(C)o3)nc2c1 [Compound 3g, 2-((5-Methoxybenzothiazol-2-yl)thio)-N′-((5-methylfuran-2-yl)methylene)acetohydrazide]	145.3 to 146.7 °C	18.2%		11.2%		16.7%	11.1%
COc1ccc2sc(SCC(=O)NN=Cc3ccc([N+](=O)[O-])o3)nc2c1 [Compound 3h, 2-((5-Methoxybenzothiazol-2-yl)thio)-N′-((5-nitrofuran-2-yl)methylene)acetohydrazide]	168.9 to 170.7 °C	82.6%	more than 50%	79.1%	75 ± 3 nM	25.9%	21.3%
COc1ccc2sc(SCC(=O)NN=Cc3cccnc3)nc2c1 [Compound 3i, 2-((5-Methoxybenzothiazol-2-yl)thio)-N′-(pyridin-3-ylmethylene)acetohydrazide]	177.5 to 179.3 °C	32%		28.8%		19.9%	10.6%
COc1ccc2sc(SCC(=O)NN=Cc3ccncc3)nc2c1 [Compound 3j, 2-((5-Methoxybenzothiazol-2-yl)thio)-N′-(pyridin-4-ylmethylene)acetohydrazide]	159.8 to 161.4 °C	34.6%		30.5%		22.1%	17.3%
O=C(NCCN1CCOCC1)c1ccc(Cl)cc1 [Moclobemide, reference compound]						91.4 ± 4.6%	77.9 ± 3.71%
